Reference: US4014909A, “Esters of 21-thiol steroids” (priority 1974, dated 1977)
Read-outs that look alike come from different tables or passages of the source.

What was measured:
granuloma / thymus = assay: Ratio of the local anti-inflammatory activity to the thymolytic activity; format: in vivo, rat (Wistar); settings: for ED50 anti-proliferative activity / ED50 thymolytic activity (sub-cutaneous route): thymolytic activity determined by sub-cutaneous route; for ED50 anti-proliferative activity / ED50 thymolytic activity (oral route): thymolytic activity determined by the oral route
Experimental: The DE50 were calculated by transferring the results on to semi-logarithmic paper.
(§1) For each animal, the weight of the thymus has been brought to 100 grams of body weight. The thymolytic activity of the products under study was then expressed as a percentage of regression of the thymus with respect to the animals of the reference group and the ED50 of each product tested was estimated by transferring the percentage inhibition obtained for each dose on semi-logarithmic paper.
The ratio is indicated in Tables VII, VIII and IX which follow: […]

granuloma = assay: Anti-proliferative (anti-granulomatous) activity, cotton pellet granuloma; format: in vivo, rat (Wistar, male); settings: rat, cotton pellet impregnated with product, 6 days
Excerpt: The experimental local anti-inflammatory activity of the compounds presented was estimated in rats by their anti-proliferative (anti-granulomatous) action, and for certain of these, by their anti-arthritic activity and their antiexudative activity.
The anti-proliferative (anti-granulomatous) activity has been brought into evidence by means of a test, the principle of which is as follows.
The introduction of a foreign body into an organism produces a set of inflammatory reactions which results, in the chromic stage, in the formation of a defence granuloma around the foreign body. The proliferation of this granuloma is eliminated or attenuated by anti-inflammatory agents.
The technique employed is very similar to that described by Winter and Porter (J. Am. Pharm. Ass. 46/9. 515) 1957 with rats.
Homogeneous groups of 6 male adult rats of the Wistar Strain were used, distributed at random and having weights comprised between 180 and 200 grams.
The implants or pellets were prepared from rolls of dental cotton; the weight of the pellets was between 35 and 40 mg.
The products to be tested were dissolved in dimethylsulphoxide (DMSO) and the solutions obtained, deposited on the pellets at a volume of 0.2 ml per pellet. The DMSO was then evaporated under high vacuum at ambient temperature, the complete elimination of the solvent being checked by weighing the pellets. "Reference" pellets, soaked with the solvent alone, were treated in the same manner.
Immediately before their introduction, the pellets were soaked with an antibiotic solution (0.1 ml. of a solution of penicillin G and streptomycin containing 200,000 of penicillin G and 0.1 gram of streptomycin sulphate per cc.).
Each animal received two pellets in the sub-cutaneous dorsal tissue on each side of the spinal column, at the costo-lumbar angle, under light anaesthesia with ether. The day of the operation and for three days after, the animals received by sub-cutaneous injection, 0.1 ml. of the antibiotic solution in the caudal region.
Six days after the introduction, the animals were killed by inhalation of chloroform and the granulomae were extracted and weighed, (fresh weight), and then the initial weights of the cotton pellets were subtracted from the total weight.
Certain non-sulphured steroids causing a large increase in protein catabolism which can influence the formation of the granuloma independently of their anti-inflammatory action, the weights of the granulomae were expressed as a percentage of the body weight (technique proposed by G. Dipasquale and A. Meli: J. Pharm. Pharmacol. (1965), 17,367-382) and the anti-proliferative effect of the various compounds as a percentage inhibition with respect to the reference granulomae. The DE50 were calculated by transferring the results on to semi-logarithmic paper.

thymus = format: in vivo, rat (Wistar, young male)
Experimental: The thymolytic effects have been examined by means of a test, the principle of which is as follows:
The repeated administration of a gluco-corticoid having a systemic activity causes an involution of the defence system of the organism, of which two organs belong to the reticulo-endothelial system, the spleen and the thymus, this latter being the most sensitive to this action, especially with young animals. The thymic involution is estimated by weighing.
The various products were injected daily by the oral or the sub-cutaneous route for four days, to young male rats of Wistar-strain, the initial weight of which was between 45 and 55 grams, distributed at random by groups of ten.
The products under study were administered at a volume of 0.2 ml. per animal for both methods, in suspension in:
Carboxy-methyl-cellulose at 5 % for sub-cutaneous injection;
Gum arabic at 5 % for the oral route.
The animals of the reference groups received the same volume of the corresponding vehicle.
Ninety-six hours after the first administration, the animals were killed, the thymus glands being taken and weighed immediately.
as §1

[1] = cited from earlier work; for Adreno-corticoid activity / Diuretic activity: U.S. Pat. No. 2,814,632
[2] = oral, total dose administered during four days per rat of about 50 g
[3] = sub-cutaneous, total dose administered during four days per rat of about 50 g

With `C[C@]12C=CC(=O)C=C1CC[C@@H]1[C@@H]2[C@@H](O)C[C@@]2(C)[C@H]1CC[C@]2(O)C(=O)CSC(=O)c1ccc(F)cc1` [JO 1014, Thiol-21 dioxo-3,20 pregnadiene-1,4-21 p. fluorobenzoate] the “ED50 anti-proliferative activity / ED50 thymolytic activity (sub-cutaneous route)” value (granuloma / thymus) was 0.0125, the “ED50 anti-proliferative activity / ED50 thymolytic activity (oral route)” value (granuloma / thymus) was 0,012 and the ED50 anti-proliferative activity (granuloma) was 0.5 mg/pellet. For the same compound, the “ED50 thymolytic activity, sub-cutaneous route” value (thymus; rat, in vivo, 5760 min) was over 40 mg and the “ED50 thymolytic activity, oral route” value (thymus; rat, in vivo, po, 5760 min) was 40 mg.
For `CCCCCCC(=O)SCC(=O)[C@@]1(O)CC[C@H]2[C@@H]3CCC4=CC(=O)C=C[C@]4(C)[C@H]3[C@@H](O)C[C@@]21C` [JO 1009, Dihydroxy-11β, 17αthiol-21 dioxo-3,20 pregnadiene-1,4-21 heptanoate], the “ED50 anti-proliferative activity / ED50 thymolytic activity (sub-cutaneous route)” value (granuloma / thymus) was 0.0625, the ED50 anti-proliferative activity (granuloma) was 0.5 mg/pellet and the “ED50 thymolytic activity, sub-cutaneous route” value (thymus; rat, in vivo, 5760 min) was 8 mg.
For `CC(C)(C)C(=O)SCC(=O)[C@@]1(O)CC[C@H]2[C@@H]3CCC4=CC(=O)C=C[C@]4(C)[C@H]3[C@@H](O)C[C@@]21C` [JO 1007, Dihydroxy-11β, 17αThiol 21 Dioxo-3,20 Pregnadiene-1,4 -21 Pivalate], the “ED50 anti-proliferative activity / ED50 thymolytic activity (sub-cutaneous route)” value (granuloma / thymus) was 0.014, the “ED50 anti-proliferative activity / ED50 thymolytic activity (oral route)” value (granuloma / thymus) was 0.046 and the ED50 anti-proliferative activity (granuloma) was 0,44 mg/pellet. The “ED50 thymolytic activity, sub-cutaneous route” value (thymus; rat, in vivo, 5760 min) was 30.4 mg and the “ED50 thymolytic activity, oral route” value (thymus; rat, in vivo, po, 5760 min) was 9.6 mg.
For `C[C@@H]1C[C@H]2[C@@H]3CCC4=CC(=O)C=C[C@]4(C)[C@@]3(F)[C@@H](O)C[C@]2(C)[C@@]1(O)C(=O)CSC(=O)c1ccc(F)cc1` [JO 1013, Dihydroxy-11β, 17α thiol-21 dioxo-3,20 fluoro-9α methyl-16α pregnadiene-1,4-21 p. fluoro benzoate], the “ED50 anti-proliferative activity / ED50 thymolytic activity (sub-cutaneous route)” value (granuloma / thymus) was 0.625, the ED50 anti-proliferative activity (granuloma) was 0.5 mg/pellet and the “ED50 thymolytic activity, sub-cutaneous route” value (thymus; rat, in vivo, 5760 min) was 0.8 mg.
With `C[C@@H]1C[C@H]2[C@@H]3CCC4=CC(=O)C=C[C@]4(C)[C@@]3(F)[C@@H](O)C[C@]2(C)[C@@]1(O)C(=O)CSC(=O)C(C)(C)C` [JO 1008, Dihydroxy-11β, 17α thiol-21 dioxo-3,20 fluoro-9α methyl-16α pregnadiene-1,4-21-pivalate] the “ED50 anti-proliferative activity / ED50 thymolytic activity (sub-cutaneous route)” value (granuloma / thymus) was 1.25, the ED50 anti-proliferative activity (granuloma) was 1 mg/pellet and the “ED50 thymolytic activity, sub-cutaneous route” value (thymus; rat, in vivo, 5760 min) was 0.8 mg.
In the case of `C[C@]12CCC(=O)C=C1CC[C@@H]1[C@@H]2[C@@H](O)C[C@@]2(C)[C@H]1CC[C@]2(O)C(=O)CO` [Hydrocortisone (base), Hydrocortisone, reference compound], the “ED50 anti-proliferative activity / ED50 thymolytic activity (sub-cutaneous route)” value (granuloma / thymus) is reported as 5.5, the “ED50 anti-proliferative activity / ED50 thymolytic activity (oral route)” value (granuloma / thymus) is reported as 2.5 and the ED50 anti-proliferative activity (granuloma) is reported as 10 mg/pellet. For the same compound, the “ED50 thymolytic activity, sub-cutaneous route” value (thymus; rat, in vivo, 5760 min) was 1.8 mg and the “ED50 thymolytic activity, oral route” value (thymus; rat, in vivo, po, 5760 min) was 4 mg.
In the case of `CC(=O)SCC(=O)[C@@]1(O)CC[C@H]2[C@@H]3CCC4=CC(=O)C=C[C@]4(C)[C@H]3[C@@H](O)C[C@@]21C` [21-thio-acetate of prednisolone], the Adreno-corticoid activity [1] is given as “possessing an adreno-corticoid activity” and the Diuretic activity [1] is given as “considerable diuretic activity”.
For `CC(=O)SCC(=O)[C@@]1(O)[C@H](C)C[C@H]2[C@@H]3CCC4=CC(=O)C=C[C@]4(C)[C@@]3(F)[C@@H](O)C[C@@]21C` [21-thio-acetate of dexamethasone], the Anti-inflammatory action ([1]; French Pat. No. 1187 M) is given as “anti-inflammatory product with a local action and a systemic action”.
With `CC(=O)OCC(=O)[C@@]1(O)[C@H](C)C[C@H]2[C@@H]3CCC4=CC(=O)C=C[C@]4(C)[C@@]3(F)[C@@H](O)C[C@@]21C` [Dexamethasone (acetate), Dexamethasone acetate, reference compound] the “ED50 anti-proliferative activity / ED50 thymolytic activity (sub-cutaneous route)” value (granuloma / thymus) was 40, the “ED50 anti-proliferative activity / ED50 thymolytic activity (oral route)” value (granuloma / thymus) was 40 and the ED50 anti-proliferative activity (granuloma) was 0.4 mg/pellet. The “ED50 thymolytic activity, sub-cutaneous route” value (thymus; rat, in vivo, 5760 min) was 0.009 mg and the “ED50 thymolytic activity, oral route” value (thymus; rat, in vivo, po, 5760 min) was 0.01 mg.
With `CCCCCCC(=O)SCC(=O)[C@@]1(O)[C@H](C)C[C@H]2[C@@H]3CCC4=CC(=O)C=C[C@]4(C)[C@@]3(F)[C@@H](O)C[C@@]21C` [JO 1010, Dihydroxy611β, 17α thiol-21 dioxo-3,20 fluoro-9α methyl-16α pregnadiene-1,4-21 heptanoate] the “ED50 anti-proliferative activity / ED50 thymolytic activity (sub-cutaneous route)” value (granuloma / thymus) was 1.25, the ED50 anti-proliferative activity (granuloma) was 0,5 mg/pellet and the “ED50 thymolytic activity, sub-cutaneous route” value (thymus; rat, in vivo, 5760 min) was 0.4 mg.
With `CC(=O)OCC(=O)[C@@]1(O)CC[C@H]2[C@@H]3CCC4=CC(=O)C=C[C@]4(C)[C@H]3[C@@H](O)C[C@@]21C` [Prednisolone (acetate), reference compound] the ED50 anti-proliferative activity (granuloma) was 2 mg/pellet, the “ED50 thymolytic activity, oral route” value (thymus; [2]) was 0.64 mg and the “ED50 thymolytic activity, sub-cutaneous route” value (thymus; [3]) was 0.23 mg.
For `CCC(=O)SCC(=O)[C@@]1(O)CC[C@H]2[C@@H]3CCC4=CC(=O)C=C[C@]4(C)[C@H]3[C@@H](O)C[C@@]21C` [21-thio propionate of prednisolone], the Adreno-corticoid activity [1] is given as “possessing an adreno-corticoid activity” and the Diuretic activity [1] is given as “considerable diuretic activity”.
In the case of `C[C@]12C=CC(=O)C=C1CC[C@@H]1[C@@H]2[C@@H](O)C[C@@]2(C)[C@H]1CC[C@]2(O)C(=O)CO` [Prednisolone (base), Prednisolone, reference compound], the “ED50 anti-proliferative activity / ED50 thymolytic activity (sub-cutaneous route)” value (granuloma / thymus) is reported as 5, the “ED50 anti-proliferative activity / ED50 thymolytic activity (oral route)” value (granuloma / thymus) is reported as 12.5 and the ED50 anti-proliferative activity (granuloma) is reported as 4 mg/pellet. The “ED50 thymolytic activity, oral route” value (thymus; [2]) was 0.34 mg and the “ED50 thymolytic activity, sub-cutaneous route” value (thymus; [3]) was 0.84 mg.
In the case of `CC(=O)SCC(=O)[C@@]1(O)CC[C@H]2[C@@H]3CCC4=CC(=O)CC[C@]4(C)[C@H]3[C@@H](O)C[C@@]21C` [21-thio-acetate of hydrocortisone], the Biological activity ([1]; J. Org. Chem. 26,1233, 1961) is listed as “free of all interesting biological activity”.
For `C[C@]12CCC(=O)C=C1CC[C@@H]1[C@@H]2[C@@H](O)C[C@@]2(C)[C@H]1CC[C@]2(O)C(=O)CSC(=O)c1ccc(F)cc1` [JO 1026, Dihydroxy-11β, 17α thiol-21 dioxo-3,20 pregnene-4-21 p. fluoro-benzoate], the “ED50 anti-proliferative activity / ED50 thymolytic activity (sub-cutaneous route)” value (granuloma / thymus) was under 0.01, the “ED50 anti-proliferative activity / ED50 thymolytic activity (oral route)” value (granuloma / thymus) was under 0.01 and the ED50 anti-proliferative activity (granuloma) was 0.4 mg/pellet. For the same compound, the “ED50 thymolytic activity, sub-cutaneous route” value (thymus; rat, in vivo, 5760 min) was over 40 mg and the “ED50 thymolytic activity, oral route” value (thymus; rat, in vivo, po, 5760 min) was over 40 mg.
In the case of `C[C@@H]1C[C@H]2[C@@H]3CCC4=CC(=O)C=C[C@]4(C)[C@@]3(F)[C@@H](O)C[C@]2(C)[C@@]1(O)C(=O)CO` [Dexamethasone (base), Dexamethasone, reference compound], the “ED50 anti-proliferative activity / ED50 thymolytic activity (sub-cutaneous route)” value (granuloma / thymus) is reported as 50, the “ED50 anti-proliferative activity / ED50 thymolytic activity (oral route)” value (granuloma / thymus) is reported as 80 and the ED50 anti-proliferative activity (granuloma) is reported as 1 mg/pellet. The “ED50 thymolytic activity, sub-cutaneous route” value (thymus; rat, in vivo, 5760 min) was 10.02 mg and the “ED50 thymolytic activity, oral route” value (thymus; rat, in vivo, po, 5760 min) was 0.013 mg.
